Test [1] addresses T1, Interleukin-1 receptor-associated kinase 4 (Homo sapiens, UniProt Q9NWZ3).
T1 sequence (Q9NWZ3 whole entry): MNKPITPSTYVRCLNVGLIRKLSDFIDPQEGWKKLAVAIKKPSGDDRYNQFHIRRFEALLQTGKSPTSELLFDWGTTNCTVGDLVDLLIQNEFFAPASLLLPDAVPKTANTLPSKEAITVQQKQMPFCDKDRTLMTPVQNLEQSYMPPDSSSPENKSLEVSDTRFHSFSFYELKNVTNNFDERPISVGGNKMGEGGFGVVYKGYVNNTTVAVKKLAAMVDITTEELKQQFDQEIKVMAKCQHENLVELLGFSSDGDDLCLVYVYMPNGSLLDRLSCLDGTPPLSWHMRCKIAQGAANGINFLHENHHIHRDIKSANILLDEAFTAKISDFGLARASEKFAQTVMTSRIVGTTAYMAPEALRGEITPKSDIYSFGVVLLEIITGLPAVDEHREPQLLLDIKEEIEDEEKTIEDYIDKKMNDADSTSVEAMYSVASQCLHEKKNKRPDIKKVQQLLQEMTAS
The experiment in a line: Inhibition of IRAK4.

Test [2] addresses T2, Mitogen-activated protein kinase 8 (Homo sapiens, UniProt P45983). The experiment in a line: Inhibition of JNK1.
Test [3] has as its target T3, Mitogen-activated protein kinase 9 (Homo sapiens, UniProt P45984). The experiment in a line: Inhibition of JNK2 at 10 uM.
Target sequence in this assay (P45984 whole entry, looked up): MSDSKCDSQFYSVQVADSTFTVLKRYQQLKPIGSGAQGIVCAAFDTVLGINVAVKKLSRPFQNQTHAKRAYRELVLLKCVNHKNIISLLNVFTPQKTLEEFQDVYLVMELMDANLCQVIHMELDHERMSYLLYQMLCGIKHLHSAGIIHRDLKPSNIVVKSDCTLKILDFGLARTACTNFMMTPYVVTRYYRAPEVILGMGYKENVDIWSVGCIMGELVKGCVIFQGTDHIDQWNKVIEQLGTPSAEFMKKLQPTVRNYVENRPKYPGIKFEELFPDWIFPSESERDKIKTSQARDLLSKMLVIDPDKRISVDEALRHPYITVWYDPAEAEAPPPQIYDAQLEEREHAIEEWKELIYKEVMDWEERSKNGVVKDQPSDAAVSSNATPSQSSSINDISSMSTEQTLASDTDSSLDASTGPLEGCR
In test [4] the target is T2, Mitogen-activated protein kinase 8. The experiment in a line: Inhibition of JNK1 at 10 uM.
Test [5] deals with Mitogen-activated protein kinase 10 (Homo sapiens, UniProt P53779). The experiment in a line: Inhibition of JNK3.
Test [6] deals with T4, Interleukin-1 receptor-associated kinase 4 (Homo sapiens) (UniProt Q9NWZ3).
T4 sequence (whole entry): T1 sequence (Q9NWZ3 whole entry)
The experiment in a line: Inhibition of IRAK4 at 10 uM.

Test [7] deals with T3, Mitogen-activated protein kinase 9. The experiment in a line: Inhibition of JNK2.
Target sequence in this assay (P45984 whole entry): as the sequence (P45984 whole entry, looked up) above

In general, IC50 refers to the midpoint of a concentration-inhibition curve. Read a low IC50 as greater potency in that assay. One may read the inhibition as how much of the control response was suppressed.

Molecules are shown by their SMILES.

T2 sequence (P45983 whole entry): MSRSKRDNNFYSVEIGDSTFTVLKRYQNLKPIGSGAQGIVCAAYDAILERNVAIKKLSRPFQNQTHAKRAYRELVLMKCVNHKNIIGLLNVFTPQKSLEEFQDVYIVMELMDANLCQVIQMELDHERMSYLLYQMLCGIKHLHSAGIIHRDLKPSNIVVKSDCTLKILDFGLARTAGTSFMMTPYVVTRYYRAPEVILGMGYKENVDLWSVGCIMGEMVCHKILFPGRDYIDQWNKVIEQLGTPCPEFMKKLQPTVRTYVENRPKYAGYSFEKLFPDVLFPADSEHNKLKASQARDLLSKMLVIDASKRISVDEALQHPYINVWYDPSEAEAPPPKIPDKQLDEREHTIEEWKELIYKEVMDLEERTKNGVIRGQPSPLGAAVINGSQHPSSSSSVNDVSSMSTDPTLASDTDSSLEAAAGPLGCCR
Sequence of Mitogen-activated protein kinase 10 (P53779 whole entry): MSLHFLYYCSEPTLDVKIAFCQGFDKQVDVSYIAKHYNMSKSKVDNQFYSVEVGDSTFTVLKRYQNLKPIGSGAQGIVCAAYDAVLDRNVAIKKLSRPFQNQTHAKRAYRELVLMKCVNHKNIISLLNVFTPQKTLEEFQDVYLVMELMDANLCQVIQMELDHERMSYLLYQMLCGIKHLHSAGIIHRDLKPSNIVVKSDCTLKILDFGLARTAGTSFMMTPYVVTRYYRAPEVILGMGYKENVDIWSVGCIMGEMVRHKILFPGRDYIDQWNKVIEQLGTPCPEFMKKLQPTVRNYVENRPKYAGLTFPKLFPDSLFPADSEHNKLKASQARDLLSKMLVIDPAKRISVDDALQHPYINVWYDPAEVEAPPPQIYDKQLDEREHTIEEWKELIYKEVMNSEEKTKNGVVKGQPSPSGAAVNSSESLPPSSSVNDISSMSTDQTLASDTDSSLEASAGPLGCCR

On to `c1ccn2c(-c3ccnc(NC4CCNCC4)n3)cnc2c1`, for which the IC50 in test [1] was 216 nM; in test [2], 3800 nM. In addition, the inhibition in test [3] stood at 59%.
`CN(c1nccc(-c2cnc3ccccn23)n1)C1CCNCC1` yielded an IC50 in test [1] of 200 nM. Also, the inhibition in test [4] amounted to 33%; in test [3], 35%.
Consider `CNC(=O)CN1CCC(Nc2nccc(-c3cnc4ccccn34)n2)CC1`, for which the IC50 in test [5] turned out to be 270 nM.
In the case of `c1cc(NC2CCNCC2)nc(-c2cnc3ccccn23)c1`, in test [1], the IC50 was determined as 35 nM. Besides, the inhibition in test [4] is 39%; in test [3], 15%.
Consider `c1ccn2c(-c3ccnc(NC4CCNCC4)c3)cnc2c1`, for which the values for the inhibition in test [6], in test [4] and in test [3] were 31%, 0% and 0%, respectively.
As for `c1cc(NC2CCNCC2)nc(-c2n[nH]c3ccccc23)c1`, the IC50 turned out to be 456 nM in test [1], 2080 nM in test [2] and 1760 nM in test [7].
As for `c1cc(NC2CCNCC2)nc(-c2cncc3ccccc23)c1`, in test [1], the IC50 was 1930 nM. Further, the inhibition in test [4] worked out at 5%; in test [3], 0%.
For `c1ccn2c(-c3ccnc(OC4CCNCC4)n3)cnc2c1`, in that order: 1190 nM, 24% and 30%.
Take `CN(c1nccc(-c2cnc3ccccn23)n1)C1CCCCC1`: the 50% inhibitory concentration (IC50) in test [1] is 400 nM; in test [5] it was 3 nM.
In the case of `c1cc(NC2CCNCC2)nc(-n2ccc3ccccc32)c1`, the inhibition stood at 30% in test [6], 0% in test [4] and 0% in test [3].
Turning to `c1cc(NC2CCNCC2)nc(-n2cnc3ccccc32)c1`, the half-maximal inhibitory concentration (IC50) in test [1] came out at 70 nM. Further, the inhibition in test [4] and in test [3] was 0% each time.

The record behind these values is ChEMBL document CHEMBL1150395, “IRAK-4 inhibitors. Part II: a structure-based assessment of imidazo[1,2-a]pyridine binding” (Bioorg Med Chem Lett, 2008).
